The test system of data set [1] is exon and intron 23 of the dystrophin gene. The data set is described as follows: Example 3: intramuscular glucose-formulated AOs, RT-PCR of exon skipping. It is filed as in vivo, mdx mice. Here is the method:
Total RNA was extracted from skeletal muscle and heart tissue with Trizol (Invitrogen, UK) and 200 ng of RNA template was used for 20 μl RT-PCR with OneStep RT-PCR kit (Qiagen, UK). The primer sequences for the initial RT-PCR were Exon20Fo 5′-[…]-3′ and Ex26Ro 5′-[…]-3′ for amplification of messenger RNA from exons 20 to 26. The cycle conditions were 95° C. for 30 seconds, 55° C. for 1 minute and 72° C. for 2 minutes for 25 cycles. RT-PCR product (1 μl) was then used as the template for secondary PCR performed in 25 μl with 0.5 U Taq DNA polymerase (Invitrogen, UK). The primer sequences for the second round were Ex20Fi 5′-[…]-3′ and Ex24Ri 5′-[…]-3. The cycle conditions were 95° C. for 1 minute, 57° C. for 1 minute, and 72° C. for 2 min for 25 cycles. The products were examined by electrophoresis on a 2% agarose gel.
For intramuscular studies the TA muscle of each experimental mdx mouse was injected with a 40 μl dose of PNA and PNA-peptide conjugates with saline at a final concentration of 125 μg/ml, and the contralateral muscle was injected with saline. For systemic intravenous injections, X μg PNA or PNA-peptide conjugates in 80 μl saline buffer were injected into tail vein of mdx mice at the final dose of 25 mg/kg and 6 mg/kg, respectively. […]

The test system is the same in data set [2]. Put plainly: Example 3: intravenous glucose-formulated AOs, dystrophin immunohistochemistry. The conditions noted are these: single intravenous dose of 25 mg/kg. The data set is classed as in vivo, mdx mice. From the text: (§1) Given the dramatic enhancement in AO uptake and exon skipping activity and dystrophin restoration observed following intramuscular delivery of glucose-formulated AO we wished to study whether or not such enhancement could also facilitate improved systemic AO delivery and splice correcting activity. Initially we chose to study whether or not systemic PMO AO delivery was enhanced following glucose formulation. We compared PMO formulated in saline with PMO formulated in either 5% glucose or formulated in glucose at a final concentration of 4.5% and delivered these via a single intravenous dose of 25 mg/kg in mdx mice.
We further studied the intravenous enhancing effects by investigating the effects on a peptide conjugated PMO compound using a well characterised arginine-rich peptide (RXR)4. […]
(§2) Sections of 8 μm were cut from at least two-thirds of the muscle length of TA, quadriceps, gastrocnemius, biceps, abdominal wall and diaphragm muscles and cardiac muscle at 100 μm intervals. […] The maximum number of dystrophin-positive fibres in one section was counted using the Zeiss AxioVision fluorescence microscope. […] Polyclonal antibodies were detected by goat-anti-rabbit IgGs Alexa Fluro 594 (Molecular Probe, UK). […] Polyclonal antibodies were detected by goat-anti-rabbit IgGs Alexa 594 and the monoclonal antibodies by goat-anti-mouse IgGs Alexa 594 (Molecular Probe, UK). […]

For data set [3] the test system is unchanged. Put plainly: Example 3: intramuscular injection of glucose-formulated AOs, dystrophin-positive myofibres by immunohistochemistry. The conditions noted are these: intramuscular into TA, 8 week old mdx mice, two weeks. The data set is classed as in vivo. Here is the method:
Here we study a novel delivery glucose formulation by evaluating it via local intramuscular injection into the mdx mouse tibialis anterior (TA) muscle. Initial experiments were performed in 6-8 week old mdx mice (referred to as 8 weeks) by treatment with a single dose of 5 ug of 2′OMePS AO formulated in 5% glucose. In a parallel control study, age-matched control mdx mice were treated with the same AO dose formulated in standard saline buffer.
For intramuscular studies the TA muscle of each experimental mdx mouse was injected with a 40 μl dose of PNA and PNA-peptide conjugates with saline at a final concentration of 125 μg/ml, and the contralateral muscle was injected with saline. […]
as §2

For data set [4] the test system is unchanged. Put plainly: Example 3: intravenous glucose-formulated AOs, RT-PCR of splice correction. It is filed as in vivo, mdx mice. The conditions noted are these: single intravenous dose of 25 mg/kg, various muscle groups.
Text: as §1
We further studied the intravenous enhancing effects by investigating the effects on a peptide conjugated PMO compound using a well characterised arginine-rich peptide (RXR)4.
Total RNA was extracted from skeletal muscle and heart tissue with Trizol (Invitrogen, UK) and 200 ng of RNA template was used for 20 μl RT-PCR with OneStep RT-PCR kit (Qiagen, UK). The primer sequences for the initial RT-PCR were Exon20Fo 5′-[…]-3′ and Ex26Ro 5′-[…]-3′ for amplification of messenger RNA from exons 20 to 26. The cycle conditions were 95° C. for 30 seconds, 55° C. for 1 minute and 72° C. for 2 minutes for 25 cycles. RT-PCR product (1 μl) was then used as the template for secondary PCR performed in 25 μl with 0.5 U Taq DNA polymerase (Invitrogen, UK). […]

For data set [5] the test system is unchanged. Put plainly: Example 3: intramuscular glucose-formulated AOs, Western blot of dystrophin. The data set is classed as in vivo, mdx mice. Here is the method: For intramuscular studies the TA muscle of each experimental mdx mouse was injected with a 40 μl dose of PNA and PNA-peptide conjugates with saline at a final concentration of 125 μg/ml, and the contralateral muscle was injected with saline. For systemic intravenous injections, X μg PNA or PNA-peptide conjugates in 80 μl saline buffer were injected into tail vein of mdx mice at the final dose of 25 mg/kg and 6 mg/kg, respectively. The animals were killed at various time points after injection by CO2 inhalation and tissues were removed and snap-frozen in liquid nitrogen-cooled isopentane and stored at −80° C.
The collected sections were placed in a 1.5 ml polypropylene eppendorf tube (Anachem, UK) on dry ice. […] The supernatant was collected and the protein concentration was quantified by Bradford assay (Sigma, UK). […] The bound primary antibody was detected by horseradish peroxidise-conjugated rabbit anti-mouse IgGs and the ECL Western Blotting Analysis system (Amersham Pharmacia Biosciences, UK). The intensity of the bands obtained from treated mdx muscles was measured by Image J software; the quantification is based on band intensity and area, and is compared with that from normal muscles of C57BL6 mice.
In general terms: Immunoblotting shows a protein as a band on a membrane.

Data on one substance can be found in patent US20110130346A1, “PEPTIDE CONJUGATES FOR DELVERY OF BIOLOGICALLY ACTIVE COMPOUNDS” (ISIS INNOVATION LIMITED, priority 2008, published 2011).

Regarding “5′-GGCCAAACCTCGGCTTACCTGAAAT-3′ (morpholino backbone, further chemistry not given here) [PMO, neutrally charged PMO AO, M23D, 25 mer]”, the “exon skipping activity at the RNA level, glucose versus saline formulation” value in data set [1] was “enhanced exon skipping activity”. For the same substance, the “corrected dystrophin-positive fibres, glucose (5% or 4.5%) versus saline formulation” value in data set [2] is recorded as “significant enhancements”. In data set [3], the “dystrophin-positive myofibres, 5% glucose formulation compared with saline formulation” value is given as “no significant difference”. Also, in data set [4], the “dystrophin splice correction at the RNA level, glucose versus saline formulation” value is reported as “enhanced dystrophin splice correction”. Also, in data set [5], the “dystrophin protein expression on Western blot, glucose versus saline formulation” value was “increased dystrophin protein expression”.
